Results on one molecule are retold here after publication PMC8942775, “Lipidated Calcitonin Gene-Related Peptide (CGRP) Peptide Antagonists Retain CGRP Receptor Activity and Attenuate CGRP Action In Vivo” (Frontiers in Pharmacology, 2022).

Assay [1] concerns the target T1, mAMY1 receptor (Mus musculus, UniProt Q60755+Q9WTJ5).
T1 sequence (Q60755 42-496 isoform Q60755-2 limits assumed): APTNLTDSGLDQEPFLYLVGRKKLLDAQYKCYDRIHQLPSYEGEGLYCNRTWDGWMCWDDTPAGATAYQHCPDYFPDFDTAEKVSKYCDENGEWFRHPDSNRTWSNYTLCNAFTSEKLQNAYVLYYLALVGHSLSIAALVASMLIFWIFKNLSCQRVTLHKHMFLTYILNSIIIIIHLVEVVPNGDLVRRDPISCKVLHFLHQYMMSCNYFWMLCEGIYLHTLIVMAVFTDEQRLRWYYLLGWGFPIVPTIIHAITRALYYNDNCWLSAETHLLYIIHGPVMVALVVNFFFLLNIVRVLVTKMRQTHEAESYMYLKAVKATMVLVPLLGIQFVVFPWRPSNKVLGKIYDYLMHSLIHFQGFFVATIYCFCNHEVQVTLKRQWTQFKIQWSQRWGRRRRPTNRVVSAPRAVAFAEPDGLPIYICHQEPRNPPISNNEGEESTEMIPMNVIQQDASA
T1 sequence (Q9WTJ5 27-148): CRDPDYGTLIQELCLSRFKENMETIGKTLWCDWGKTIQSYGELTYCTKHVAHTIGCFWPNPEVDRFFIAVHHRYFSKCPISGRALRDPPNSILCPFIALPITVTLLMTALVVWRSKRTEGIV
Put plainly: cell-based. The conditions noted are these: SEM.
Procedure: (§1) Cells were grown in a humidified incubator at 37°C and 5% CO2 and seeded into 96-well plates at a density of 20,000 cells/well. The following day, Cos-7 cells were transiently transfected using Polyethylenimine (PEI) using a 1:1 ratio of receptor:RAMP DNA.
(§2) Transfected Cos-7 cells were incubated with agonist in the presence or absence of antagonist at 37°C for 15 min. cAMP production was terminated by aspirating all the media in the wells, followed by the addition of 50 μl of ice-cold ethanol.
(§3) The Hill slope was constrained to one following agonist analyses. The Schild slope was also constrained to one. The pA2 and pKB values were obtained from the Schild analysis. For washout experiments, the same method of analysis was applied to the antagonists, but with minor revisions. The Schild analysis relied on the matched control agonist curves i.e. those derived from the same experimental conditions as the agonist + antagonist curves. Normalization was also specific to the matched control agonist curves.
(§4) Mean pEC50, pKB and pA2 values from at least three independent experiments before normalization were also presented as mean ± SEM. pEC50, pKB and pA2 values from independent experiments were grouped and compared by unpaired Student’s t-test or by one-way ANOVA. […]

Assay [2] addresses mCGRP receptor (Mus musculus, UniProt Q9R1W5+Q9WTJ5). Put plainly: cell-based. The following applies: SEM.
Procedure: as §1, §2, §3, §4

mCGRP receptor, sequence (Q9R1W5 23-463, one chain of several): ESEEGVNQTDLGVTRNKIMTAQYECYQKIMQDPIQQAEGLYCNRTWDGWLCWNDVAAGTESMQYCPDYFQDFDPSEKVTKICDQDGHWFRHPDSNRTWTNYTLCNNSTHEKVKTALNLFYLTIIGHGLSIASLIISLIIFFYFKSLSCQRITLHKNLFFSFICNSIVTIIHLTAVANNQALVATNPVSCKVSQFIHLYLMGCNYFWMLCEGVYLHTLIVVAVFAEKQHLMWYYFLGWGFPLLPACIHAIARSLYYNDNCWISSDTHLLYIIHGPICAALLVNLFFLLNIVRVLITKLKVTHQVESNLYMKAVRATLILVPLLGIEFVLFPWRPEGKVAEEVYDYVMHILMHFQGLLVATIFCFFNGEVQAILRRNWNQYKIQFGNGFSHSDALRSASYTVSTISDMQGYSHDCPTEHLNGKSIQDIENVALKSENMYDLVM

In the case of `CC(C)C[C@H](NC(=O)CNC(=O)[C@H](C)NC(=O)[C@H](CC(C)C)NC(=O)[C@H](CCCNC(=N)N)NC(=O)[C@H](Cc1cnc[nH]1)NC(=O)[C@@H](NC(=O)[C@@H](N)C(C)C)[C@@H](C)O)C(=O)N[C@@H](CC(C)C)C(=O)N[C@@H](CO)C(=O)N[C@@H](CCCNC(=N)N)C(=O)N[C@@H](CO)C(=O)NCC(=O)NCC(=O)N[C@H](C(=O)N[C@H](C(=O)N[C@@H](CCCCN)C(=O)N[C@@H](CC(N)=O)C(=O)N[C@@H](CC(N)=O)C(=O)N[C@@H](Cc1ccccc1)C(=O)N[C@H](C(=O)N1CCC[C@H]1C(=O)N[C@H](C(=O)N[C@@H](CC(N)=O)C(=O)N[C@H](C(=O)NCC(=O)N[C@@H](CO)C(=O)N[C@@H](CCCCN)C(=O)N[C@@H](C)C(=O)N[C@@H](Cc1ccccc1)C(N)=O)C(C)C)[C@@H](C)O)C(C)C)C(C)C)C(C)C` [αCGRP8-37], the Kb in assay [1] is 24.5 nM; in assay [2], 1 nM.
